One assay deals with Rat2TK- cells and C33 human cervical carcinoma cells transfected with pMN-HSVtk. Kind of assay: GVC sensitivity of pMN-HSVtk transfectants. To be noted: in vitro, even in low concentrations. It counts as cell-based. On the procedure:
A plasmid construct in which HSVtk was cloned downstream of the MN promoter region Bd3, containing both proximal and distant regulatory elements of MN, was prepared. That plasmid pMN-HSVtk was transfected to Rat2TK-cells and C33 human cervical carcinoma cells using calcium phosphate precipitation and lipofection, respectively. Transfectants were tested for expression of HSVtk and GVC sensitivity. Analysis of the transfectants has shown the remarkable cytotoxic in vitro effect of GVC even in low concentrations (up to 95% of cells killed).
Consider `Nc1nc(O)c2ncn(COC(CO)CO)c2n1` [GVC, ganciclovir], for which the cells killed entry is “up to 95%”.

A further assay deals with MAb M75. The assay is described as follows: Competition ELISA with M75 on adsorbed GST-MN.
Conditions: not given
The format is binding, mouse. On the procedure: ELISA. Purified GST-MN [Zavada et al. (1993), supra] at concentration 10 ng/ml in carbonate buffer pH 9.2 was adsorbed for 3 h in Maxisorb strips (NUNC). After washing and blocking (1 h) with 0.05% Tween 20 in PBS, 50 μl/well of the antibody+antigen mixtures were added. […] These mixtures were adsorbed for 1.5 h, followed by washing with Tween-PBS. Bound antibody was detected by antimouse IgG conjugate with peroxidase (SwAM-Px, SEVAC, Prague), diluted 1:1000. In the color reaction OPD (o-phenylenediamine dihydrochloride, Sigma) 1 mg/ml in 0.1 M citrate buffer pH 5.0 was used. To this H2O2 was added to final concentration 0.03%. This system is balanced so as to allow assay for antigen competing for M75 as well as for peptides binding to the epitope of immobilized GST-MN.
Identification of the epitope recognized by Mab M75. Preliminary mapping of M75 epitope employing partial sequences of extracellular parts of MN/CA9 cDNA expressed from bacterial vectors and tested on Western blots located it in PG region For exact mapping, our strategy was to synthesize partially overlapping oligopeptides of 15-25 aa covering the PG domain and test them in competition ELISA with M75. According to the results, this was followed by a series of 6-12 aa oligopeptides. A major part of the PG domain consists of a 6-fold tandem repeat of 6 aa (aa 61-96) [SEQ ID NO: 97]; 4 repeats are identical (GEEDLP) [SEQ ID NO: 98] and 2 contain 2 aa exchanged (SEEDSP [SEQ ID NO: 141] and REEDPP [SEQ ID NO: 142]).
(In an ELISA, binding on a coated surface is turned into a signal by an enzyme label.)
On to ADLPGEEA [SEQ ID NO: 134], for which the “serological activity in competition ELISA with M75” value (shortened to “serological activity”) is on record as “none of the following still shorter oligopeptides (6+2aa) competed”. Turning to AEDLPGEA [SEQ ID NO: 133], the “serological activity” value is recorded as “none of the following still shorter oligopeptides (6+2aa) competed”. Turning to AEEDLPGA [SEQ ID NO: 132], the “serological activity” value is recorded as “none of the following still shorter oligopeptides (6+2aa) competed”. In the case of AGEEDLPA [SEQ ID NO: 131], the “serological activity” value was “none of the following still shorter oligopeptides (6+2aa) competed”. ALPGEEDA [SEQ ID NO: 135]: the “serological activity” value was “none of the following still shorter oligopeptides (6+2aa) competed”. The same measure, in the same setting: the entry for APGEEDLA [SEQ ID NO: 136] is “none of the following still shorter oligopeptides (6+2aa) competed”; for APGEEDLPA [SEQ ID NO: 125] it is “minimum serologically active sequence”; for DLPGEEDLPGEE [SEQ ID NO: 122] it is “serologically active”. EDLPGEEDLP [SEQ ID NO: 121]: the “serological activity” value was “serologically active”. For “EDPPGEEDLPGEEDLPGEEDLPEVC [SEQ ID NO: 106, aa 75-98 of the PG region, cysteine added onto the C-end]”, the “concentration causing 50% inhibition in competition ELISA” value was 1 ng/mL. In the case of EEDLPGEEDLPG [SEQ ID NO: 120], the “serological activity” value is on record as “serologically active”. Still for that read-out and setting: then “EVKPKSEEEGSLKLE [SEQ ID NO: 118, aa 97-111 of the PG region]”, with “inactive”; and GEEDLPGEEDLP [SEQ ID NO: 119], with “serologically active”. “GEEDLPSEEDSPREEDPPGEEDLPGEC [SEQ ID NO: 105, aa 61-85 of the PG region, cysteine added onto the C-end]”: the “fold less active than SEQ ID NOS: 104 and 106 in competition ELISA” value is on record as 1000 ×. Consider “GGSSGEDDPLGEEDLPSEEDSPC [SEQ ID NO: 104, aa 51-72 of the PG region, cysteine added onto the C-end]”, for which the “concentration causing 50% inhibition in competition ELISA” value was 1 ng/mL. LPGEEDLPGEED [SEQ ID NO: 123]: the “serological activity” value is listed as “serologically active”.

Take PGEEDLPGEEDL [SEQ ID NO: 124]: the “serological activity” value is “serologically active”.

Staying with this assay, now noted: 100 μg/ml.
In the case of ADLPGEEDA [SEQ ID NO. 129], the “competition in ELISA for M75” value is “negative”. As for AEDLPGEEA [SEQ ID NO: 128], the “competition in ELISA for M75” value is listed as “negative”. Take AEEDLPGEA [SEQ ID NO: 127]: the “competition in ELISA for M75” value was “negative”.

For ALPGEEDLA [SEQ ID NO: 130], the “competition in ELISA for M75” value is listed as “negative”.

The same assay, now with this note: peptides of 7+2 aa.
For AGQTRSPLA [SEQ ID NO: 140], the “activity of phage-display nonapeptides in competition ELISA” value is “inactive”. As to AITFNAQYA [SEQ ID NO: 138], the “activity of phage-display nonapeptides in competition ELISA” value is recorded as “highest activity”. On to AKKMKRRKA [SEQ ID NO: 137], for which the “activity of phage-display nonapeptides in competition ELISA” value was “less active”. For ASASAPVSA [SEQ ID NO: 139], the “activity of phage-display nonapeptides in competition ELISA” value is reported as “marginally positive”.

For another assay, the system named is NIH3T3 cells freshly transformed with the [pGD.MN+MLV] complex. Kind of assay: Morphologic transformation of NIH3T3 cells by [pGD.MN+MLV] complex in the presence of acetazolamide. To be noted: 10^−5M, 4 days of incubation.
For the compound `CC(=O)Nc1nnc(S(N)(=O)=O)s1` [acetazolamide], the “difference between transformed cells growing in presence or absence of the drug” value was “No difference”.

For the next assay, the target named is MN/CA IX (Homo sapiens, UniProt Q16790). Kind of assay: Cell adhesion assay on immobilized purified MN/CA IX (Example 2).
Conditions: not given
The format is cell-based. The protocol: The series of oligopeptides were tested by the cell adhesion assay procedure essentially as described above in Example 1. The synthetic oligopeptides were immobilized on hydrophobic plastic surfaces to see if they would mediate the attachment, spreading and growth of cells. Also investigated were whether the oligopeptides or antibodies inhibited attachment of cells (NIH3T3, HeLa and CGL1) to purified MN protein coated onto such plastic surfaces. The MN protein was affinity purified on agarose covalently linked to sulfonamide, as the MN protein encompasses a CA domain.
Cell adhesion assay. The conditions of the assay are basically as described in Example 1. Briefly, 1 μg/ml of purified MN/CA IX in 50 mM mono/bicarbonate buffer, pH 9.2, was adsorbed in 30 μl drops on the bottom of bacteriological 5 cm Petri dishes for 1.5 hr. Then the drops were removed by aspiration and the dishes were 3× rinsed with PBS and blocked with 50% FCS in culture medium for 30 min. There were two variants of the test. In the first one, the whole bottom of the Petri dish was blocked with 50% FCS, and the dishes were seeded with 5 ml of cell suspension (10^5 cells/ml). After overnight incubation, the cultures were rinsed with PBS, fixed and stained. In the other variant, only the area of adsorbed MN/CA IX was blocked and on top of MN/CA IX dots were added 30 μl drops of cell suspension in growth medium, containing added oligopeptides (or control without peptides). After incubation, rinsing and fixation, the cultures were stained with 0.5% Trypan blue in 50 mM Tris buffer pH 8.5 for 1 h, rinsed with water and dried. Stained areas of attached cells were extracted with 10% acetic acid, the extracts transferred to 96-well plates and absorbance was measured at 630 nm on microplate reader.
With AGQTRSPLA [SEQ ID NO: 140], the “activity of phage-display nonapeptides in cell adhesion inhibition” value (“activity … in cell adhesion inhibition” below) was “inactive”.

As to AITFNAQYA [SEQ ID NO: 138], the “activity … in cell adhesion inhibition” value was “highest activity”.

For the compound AKKMKRRKA [SEQ ID NO: 137], the “activity … in cell adhesion inhibition” value was “less active”. Same read-out and setting: then ASASAPVSA [SEQ ID NO: 139], with “marginally positive only in ELISA”.
